Test results from patent US20070208052A1, “Aryloxy and arylalkyleneoxy substituted thiazoloquinolines and thiazolonaphthyridines” (priority 2004, published 2007).

melting point [°C] | Structure (SMILES)
145 to 148 | CCCc1nc2c(N)nc3cc(OCCc4ccc(F)cc4)ccc3c2s1 [Example 3, 7-[2-(4-Fluorophenyl)ethoxy]-2-propylthiazolo[4,5-c]quinolin-4-amine]
189 to 192 | CCCc1nc2c(N)nc3cc(OCc4ccc(F)cc4)ccc3c2s1 [Example 2, 7-(4-Fluorobenzyloxy)-2-propylthiazolo[4,5-c]quinolin-4-amine]
195 to 197 | CCc1nc2c(N)nc3cc(OCCc4c(C)n[nH]c4C)ccc3c2s1 [Example 39, 7-[2-(3,5-Dimethyl-1H-pyrazol-4-yl)ethoxy]-2-ethylthiazolo[4,5-c]quinolin-4-amine]
170 to 171 | CCCc1nc2c(N)nc3cc(OCc4ccoc4)ccc3c2s1 [Example 5, 7-(Furan-3-ylmethyloxy)-2-propylthiazolo[4,5-c]quinolin-4-amine]
194 to 197 | CCc1nc2c(N)nc3cc(OCCCn4cc(CO)nn4)ccc3c2s1 [Example 40, (1-{[3-(4-Amino-2-ethylthiazolo[4,5-c]quinolin-7-yl)oxy]propyl}-1H-[1,2,3]triazol-4-yl)methanol]
142 to 145 | CCCc1nc2c(N)nc3cc(OCCOCc4ccccc4)ccc3c2s1 [Example 4, 7-[2-(Benzyloxy)ethoxy]-2-propylthiazolo[4,5-c]quinolin-4-amine]
184 to 186 | CCc1nc2c(N)nc3cc(OCc4ccc(C(=O)OC)o4)ccc3c2s1 [Example 42, Methyl 5-{[(4-amino-2-ethylthiazolo[4,5-c]quinolin-7-yl)oxy]methyl}-2-furoate]
158 to 160 | CCCc1nc2c(N)nc3cc(OCCn4cccc4)ccc3c2s1 [Example 33, 2-Propyl-7-[2-(pyrrol-1-yl)ethoxy]thiazolo[4,5-c]quinolin-4-amine]
213 to 214 | CCc1nc2c(N)nc3cc(Oc4ccc(C(=O)OC)cn4)ccc3c2s1 [Example 44, Methyl 6-[(4-amino-2-ethylthiazolo[4,5-c]quinolin-7-yl)oxy]nicotinate]
152 to 154 | CCCc1nc2c(N)nc3cc(OCCCn4cccc4)ccc3c2s1 [Example 34, 2-Propyl-7-[3-(pyrrol-1-yl)propoxy]thiazolo[4,5-c]quinolin-4-amine]
229 to 230 | CCc1nc2c(N)nc3cc(OCc4cccc(Cl)n4)ccc3c2s1 [Example 38, 7-[(6-Chloropyridin-2-yl)methoxy]-2-ethylthiazolo[4,5-c]quinolin-4-amine]
218 to 220 | CCc1nc2c(N)nc3cc(OCCc4c[nH]c5ccccc45)ccc3c2s1 [Example 45, 2-ethyl-7-[2-(1H-indol-3-yl)ethoxy]thiazolo[4,5-c]quinolin-4-amine]
152 to 154 | CCc1nc2c(N)nc3cc(OCc4ccc(C(F)(F)F)o4)ccc3c2s1 [Example 36, 2-Ethyl-7-{[5-(trifluoromethyl)furan-2-yl]methoxy} thiazolo[4,5-c]quinolin-4-amine]
218 to 220 | CCCc1nc2c(N)nc3cc(OCc4cscn4)ccc3c2s1 [Example 31, 2-Propyl-7-[(thiazol-4-yl)methoxy]thiazolo[4,5-c]quinolin-4-amine]
167 to 169 | CCCc1nc2c(N)nc3cc(OCc4cccnc4)ccc3c2s1 [Example 32, 2-Propyl-7-[(pyridin-3-yl)methoxy]thiazolo[4,5-c]quinolin-4-amine]
100 to 101 | CCc1nc2c(N)nc3cc(OCc4ccc(S(=O)(=O)NCCc5cc6ccccc6[nH]5)cc4)ccc3c2s1 [Example 37, 4-{[(4-Amino-2-ethylthiazolo[4,5-c]quinolin-7-yl)oxy]methyl}-N-[2-(1H-indol-2-yl)ethyl]benzenesulfonamide]
175 to 178 | CCCc1nc2c(N)nc3cc(OCc4ccccc4)ccc3c2s1 [Example 1, 7-Benzyloxy-2-propylthiazolo[4,5-c]quinolin-4-amine]
186 to 187 | CCc1nc2c(N)nc3cc(OCc4cccc(CO)n4)ccc3c2s1 [Example 43]
211 to 212 | CCc1nc2c(N)nc3cc(OCc4nc5ccccc5s4)ccc3c2s1 [Example 41, 7-[(1,3-Benzothiazol-2-yl)methoxy]-2-ethylthiazolo[4,5-c]quinolin-4-amine]
178 to 180 | CCCc1nc2c(N)nc3cc(OCc4c(C)noc4C)ccc3c2s1 [Example 35, 7-[(3,5-Dimethylisoxazol-4-yl)methoxy]-2-propylthiazolo[4,5-c]quinolin-4-amine]
208 to 209 | CCc1nc2c(N)nc3cc(OCc4ccccc4)ccc3c2s1 [Example 29, 7-Benzyloxy-2-ethylthiazolo[4,5-c]quinolin-4-amine]
172 to 173 | CCc1nc2c(N)nc3cc(OCCCc4cccnc4)ccc3c2s1 [Example 30, 2-Ethyl-7-[3-(pyridin-3-yl)propoxy]thiazolo[4,5-c]quinolin-4-amine]
